PubChem BioAssay AID1963984 (Molecular Pharmacology Branch, DTP, NCI, 2024)

Test system: 233499-124-R-J3-PDC spheroids with HUVEC/MSC, viability
Test: Anticancer human tumor 233499-124-R-J3-PDC patient-derived colon adenocarcinoma cell line growth inhibition [PI3K]
Conditions: for IC50: curve of first compound; for viability, T/C: stronger effect = lower value
Procedure, shortened: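 Multi-cell spheroids combine tumor cells with HUVEC and human MSCs, treated with targeted agents alone or with inavolisib, alpelisib, duvelisib or copanlisib. Concentrations fall in half-log steps from at or near clinical Cmax, or from 10 microM where Cmax is unknown; viability read-out.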
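Further: spheroids exposed to agents for seven days before readout.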
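Wherever viability, T/C is given: percent viability relative to DMSO vehicle control taken as 100%.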

C#Cc1c(F)ccc2cc(O)cc(-c3ncc4c(N5CC6CCC(C5)N6)nc(OCC56CCCN5CC(F)C6)nc4c3F)c12 (configuration not stated) + CC(Nc1ncnc2nc[nH]c12)c1cc2cccc(Cl)c2c(=O)n1-c1ccccc1
IC50 (second compound 0.0316 µM): > 10 µM
IC50 (second compound 0.1 µM): > 10 µM
IC50 (second compound 0.316 µM): > 10 µM
IC50 (second compound 1 µM): > 10 µM
IC50 (second compound 3.16 µM): > 10 µM
IC50 (second compound 10 µM): > 10 µM
viability, T/C (second compound 0.0316 µM, first compound 0.0316 µM): 95%
viability, T/C (second compound 0.0316 µM, first compound 0.1 µM): 101%
viability, T/C (second compound 0.0316 µM, first compound 0.316 µM): 82.5%
viability, T/C (second compound 0.0316 µM, first compound 1 µM): 90.7%
viability, T/C (second compound 0.0316 µM, first compound 3.16 µM): 85.2%
viability, T/C (second compound 0.0316 µM, first compound 10 µM): 75.5%
viability, T/C (second compound 0.1 µM, first compound 0.0316 µM): 113%
viability, T/C (second compound 0.1 µM, first compound 0.1 µM): 114%
viability, T/C (second compound 0.1 µM, first compound 0.316 µM): 81.7%
viability, T/C (second compound 0.1 µM, first compound 1 µM): 94.7%
viability, T/C (second compound 0.1 µM, first compound 3.16 µM): 84%
viability, T/C (second compound 0.1 µM, first compound 10 µM): 73.2%
viability, T/C (second compound 0.316 µM, first compound 0.0316 µM): 112%
viability, T/C (second compound 0.316 µM, first compound 0.1 µM): 92.1%
viability, T/C (second compound 0.316 µM, first compound 0.316 µM): 105%
viability, T/C (second compound 0.316 µM, first compound 1 µM): 90.6%
viability, T/C (second compound 0.316 µM, first compound 3.16 µM): 87.9%
viability, T/C (second compound 0.316 µM, first compound 10 µM): 69.7%
viability, T/C (second compound 1 µM, first compound 0.0316 µM): 102%
viability, T/C (second compound 1 µM, first compound 0.1 µM): 102%
viability, T/C (second compound 1 µM, first compound 0.316 µM): 108%
viability, T/C (second compound 1 µM, first compound 1 µM): 95.5%
viability, T/C (second compound 1 µM, first compound 3.16 µM): 109%
viability, T/C (second compound 1 µM, first compound 10 µM): 90.6%
viability, T/C (second compound 3.16 µM, first compound 0.0316 µM): 110%
viability, T/C (second compound 3.16 µM, first compound 0.1 µM): 94.2%
viability, T/C (second compound 3.16 µM, first compound 0.316 µM): 101%
viability, T/C (second compound 3.16 µM, first compound 1 µM): 77.9%
viability, T/C (second compound 3.16 µM, first compound 3.16 µM): 87.5%
viability, T/C (second compound 3.16 µM, first compound 10 µM): 55.9%
viability, T/C (second compound 10 µM, first compound 0.0316 µM): 92.8%
viability, T/C (second compound 10 µM, first compound 0.1 µM): 89.4%
viability, T/C (second compound 10 µM, first compound 0.316 µM): 87.5%
viability, T/C (second compound 10 µM, first compound 1 µM): 84.7%
viability, T/C (second compound 10 µM, first compound 3.16 µM): 108%
viability, T/C (second compound 10 µM, first compound 10 µM): 84.7%
